Here are results for 18 sequences from patent US7572454B2, “T helper cell epitopes” (priority 1999, dated 2009).

For this experiment, the system named is PBMCs from dogs immunised with CDV. In words: T-cell proliferation after in vitro stimulation of PBMC with peptide pools, tested with autologous APCs and single peptides. The experiment is classed as cell-based, dog. The conditions noted are these: for reaction with peripheral blood mononuclear cells: dogs of various breeds immunised with CDV. The procedure:
An alternate strategy was used to increase the precursor frequency of specific T cells recognising the CDV peptides. Fresh PBMCs obtained from these hyperimmunised dogs were subjected to stimulation in vitro with pools of all 94 peptides for 30 minutes at 37° C. The cells were then washed to remove any excess peptides and cultured for 7 days. This population of T cells was then tested with autologous APCs with every single peptide as the antigen.
To confirm this observation, the same four dogs were bled again, five weeks after receiving the dose of killed virus. The PBMCs were stimulated in vitro with pools of either all 94 peptides or peptides 21-40 (because most of the activity was in this region) and after 7 days of culture the stimulated T cells were tested against individual peptides. Significant stimulatory indices were obtained with all peptides, confirming the above results. Four more dogs which received only one dose of 3 in 1 vaccine were tested using the in vitro stimulation method and all four dogs responded to the majority of peptides shown in Table 2.
Once again the same peptides and one additional peptide P32 were tested on cells from additional dogs.

[1] abbreviates: Table 1, Beagle Foxhound (Dog #18), hyperimmunised, PBMC stimulated with pool of all 94 peptides, 7 days culture.
Where [2] appears, read: Table 1, Beagle Foxhound (Dog #19).
The mark [3] stands for this setting: Table 1, Beagle Foxhound (Dog #20).
Setting [4] is: Table 1, Beagle Foxhound (Dog #21).
Setting [5] is: Table 3, Kelpie Foxhound (Dog #125).
[6] abbreviates: Table 2, Beagle Foxhound (Dog #71), one dose of 3 in 1 vaccine.
Where [7] appears, read: Table 2, Beagle Foxhound (Dog #72), one dose of 3 in 1 vaccine.

For the sequence “TRSRKQTSHRLKNIPVH (canine distemper virus; synthetic peptide from canine distemper virus fusion protein (CDV-F) designated peptide P10)”, the Stimulatory index is, setting by setting: under setting [1], 2.3; under setting [2], under 2; under setting [3], 3.2; under setting [4], 9.1; (Table 5, Border Collie) 3; (Table 5, Fox Terrier) 2.2. Besides, the Stimulatory index by setting is: (Table 5, Grey hound) 2; (Table 5, Kelpie Pointer) 2.4; (Table 5, Poodle Shitzu) 50; (Table 5, Terrier Cross) 2.1.
With “SGRRQRRFAGVVLAGVA (canine distemper virus; synthetic peptide from canine distemper virus fusion protein (CDV-F) designated peptide P32)”, the Stimulatory index is reported as under 2 (Table 5, Border Collie); under 2 (Table 5, Fox Terrier); 2 (Table 5, Grey hound); under 2 (Table 5, Kelpie Pointer); under 2 (Table 5, Poodle Shitzu); under 2 (Table 5, Terrier Cross).
Take “QSLRTSLEQSNKAIEEI (canine distemper virus; synthetic peptide from canine distemper virus fusion protein (CDV-F) designated peptide P38)”: the Stimulatory index is, setting by setting: under setting [1], 2.8; under setting [2], 6.7; under setting [3], 3.6; under setting [4], 4.2; under setting [5], 2.2.
On to “KLLNSVLEPINQALTLM (canine distemper virus; synthetic peptide from canine distemper virus fusion protein (CDV-F) designated peptide P28)”, for which the Stimulatory index by setting is: under setting [6], 2; under setting [5], 1.9.
As for “SHQYLVIKLIPNASLIE (canine distemper virus; synthetic peptide from canine distemper virus fusion protein (CDV-F) designated peptide P24)”, the Stimulatory index under setting [1] amounted to 5.8; the Stimulatory index under setting [2] amounted to 9.9; the Stimulatory index under setting [3] came out at 2.8; the Stimulatory index under setting [4] is 29; the Stimulatory index under setting [6] amounted to 3.2; the Stimulatory index under setting [7] is given as 2.2.
Sequence “EQSNKAIEEIREATQET (canine distemper virus; synthetic peptide from canine distemper virus fusion protein (CDV-F) designated peptide P39)” had a Stimulatory index under setting [5] of 2.9.
As to “YKIMTRPSHQYLVIKLI (canine distemper virus; synthetic peptide from canine distemper virus fusion protein (CDV-F) designated peptide P23)”, under setting [5], the Stimulatory index amounted to 3.2.
“CIRGDTSSCARTLVSGT (canine distemper virus; synthetic peptide from canine distemper virus fusion protein (CDV-F) designated peptide P68)”: the Stimulatory index was 6.6 under setting [1]; under 2 under setting [2]; under 2 under setting [3]; 11.7 under setting [4]; 2.9 under setting [5]; under 2 (Table 5, Border Collie). Further, the Stimulatory index is listed as under 2 (Table 5, Fox Terrier); under 2 (Table 5, Grey hound); under 2 (Table 5, Kelpie Pointer); 5 (Table 5, Poodle Shitzu); under 2 (Table 5, Terrier Cross).
For the sequence “TSTIINQSPDKLLTFIA (canine distemper virus; synthetic peptide from canine distemper virus fusion protein (CDV-F) designated peptide P74)”, the “reaction with peripheral blood mononuclear cells” value is recorded as “react strongly”. The Stimulatory index (Table 4, Beagle Foxhound #20) amounted to 1.7. In addition, the Stimulatory index (Table 4, Beagle Foxhound #21) is 6.0. Also, the Stimulatory index (Table 4, Poodle Shitzu) was 4.0. Also, the Stimulatory index (Table 5, Border Collie) is under 2. Further, the Stimulatory index (Table 5, Fox Terrier) is listed as under 2. This sequence also had a Stimulatory index (Table 5, Grey hound) of under 2. Under “Table 5, Kelpie Pointer”, this sequence came in with a Stimulatory index of under 2. The same sequence returned a Stimulatory index (Table 5, Poodle Shitzu) of 4. In addition, the Stimulatory index (Table 5, Terrier Cross) was under 2.
On to “FAGVVLAGVALGVATAA (canine distemper virus; synthetic peptide from canine distemper virus fusion protein (CDV-F) designated peptide P33)”, for which the Stimulatory index under setting [7] was found to be 1.6; the Stimulatory index under setting [5] turned out to be 6; the Stimulatory index (Table 5, Border Collie) came out at 2; the Stimulatory index (Table 5, Fox Terrier) was under 2; the Stimulatory index (Table 5, Grey hound) is under 2; the Stimulatory index (Table 5, Kelpie Pointer) is reported as 2. The Stimulatory index reads like this: (Table 5, Poodle Shitzu) under 2; (Table 5, Terrier Cross) under 2.
Take “RHSTTSAQRSTHYDPRT (canine distemper virus; synthetic peptide from canine distemper virus fusion protein (CDV-F) designated peptide P6)”: the Stimulatory index under setting [1] was 2.5; the Stimulatory index under setting [2] was under 2; the Stimulatory index under setting [3] was determined as 4; the Stimulatory index under setting [4] turned out to be 5.1; the Stimulatory index (Table 5, Border Collie) is 2; the Stimulatory index (Table 5, Fox Terrier) is on record as under 2. In addition, the Stimulatory index by setting is: (Table 5, Grey hound) under 2; (Table 5, Kelpie Pointer) under 2; (Table 5, Poodle Shitzu) 38; (Table 5, Terrier Cross) under 2.
As to “GIALHQSNLNAQAIQSL (canine distemper virus; synthetic peptide from canine distemper virus fusion protein (CDV-F) designated peptide P36)”, the Stimulatory index by setting is: under setting [1], 6.7; under setting [2], 3.7; under setting [3], 3.3; under setting [4], 16; under setting [5], 3.
On to “EPINQALTLMTKNVKPL (canine distemper virus; synthetic peptide from canine distemper virus fusion protein (CDV-F) designated peptide P29)”, for which the Stimulatory index is recorded as 3.5 under setting [1]; 42 under setting [2]; 4.4 under setting [3]; under 2 under setting [4]; 2 under setting [6]; 6 (Table 2, Beagle Foxhound (Dog #73), one dose of 3 in 1 vaccine). The Stimulatory index is given as 3.6 under setting [5]; under 2 (Table 5, Border Collie); under 2 (Table 5, Fox Terrier); under 2 (Table 5, Grey hound); under 2 (Table 5, Kelpie Pointer); 2 (Table 5, Poodle Shitzu). Moreover, the Stimulatory index (Table 5, Terrier Cross) is recorded as 2.
Under setting [5], GVALGVATAAQITAGIA [Peptide P34] displayed a Stimulatory index of 2.1.
With “QPSTELEETRTSRARHS (canine distemper virus; synthetic peptide from canine distemper virus fusion protein (CDV-F) designated peptide P4)”, the Stimulatory index is 4.9 under setting [1]; under 2 under setting [2]; 3.3 under setting [3]; 4.6 under setting [4]; 2 (Table 5, Border Collie); under 2 (Table 5, Fox Terrier). For the same sequence, the Stimulatory index turned out to be 2 (Table 5, Grey hound); 3.5 (Table 5, Kelpie Pointer); 44 (Table 5, Poodle Shitzu); 2 (Table 5, Terrier Cross).
Regarding “IGTDNVHYKIMTRPSHQ (canine distemper virus; synthetic peptide from canine distemper virus fusion protein (CDV-F) designated peptide P22)”, the Stimulatory index under setting [7] is 2.6.
As for “DESSCVFVSESAICSQN (canine distemper virus; synthetic peptide from canine distemper virus fusion protein (CDV-F) designated peptide P64)”, the “reaction with peripheral blood mononuclear cells” value was “react strongly”. Besides, the Stimulatory index (Table 4, Beagle Foxhound #19) is given as 2.5. This sequence gave a Stimulatory index (Table 4, Beagle Foxhound #20) of 2.5. Also, the Stimulatory index (Table 4, Poodle Shitzu) is 50.0. Under “Table 5, Border Collie”, this sequence registered a Stimulatory index of under 2. The Stimulatory index (Table 5, Fox Terrier) is under 2. This sequence also returned a Stimulatory index (Table 5, Grey hound) of under 2. Where the note is “Table 5, Kelpie Pointer”, this sequence returned a Stimulatory index of under 2. Also, under “Table 5, Poodle Shitzu”, the Stimulatory index is on record as 50. Where the note is “Table 5, Terrier Cross”, the Stimulatory index is under 2.
On to “TELLSIFGPSLRDPISA (canine distemper virus; synthetic peptide from canine distemper virus fusion protein (CDV-F) designated peptide P47)”, for which the Stimulatory index by setting is: under setting [1], 3.3; under setting [2], 85.7; under setting [3], 2.9; under setting [4], 1.9; under setting [5], 2.7.
